Test results taken from patent US10457665B2, “1,4-di-(4-methylthiophenyl)-3-phtaloylazetidine-2-one and the derivatives thereof” (Universite De Nantes, priority 2015, dated 2019).

Experiments:
CB1R (pcDNA3.1-mCB1) = biological target: T1, CB1R (pcDNA3.1-mCB1) (Mus musculus, UniProt P47746); assay: GloSensor cAMP assay in CB1R-transfected HEK293T/17 cells; format: cell-based; details: HEK293T/17 cells transfected with mCB1, forskolin 1 μM, FIG. 2
T1 construct: expressed in transfected cells; host or cells: HEK293T/17 (ATCC), transient transfection with FuGENE HD
Description: HEK293T/17 (ATCC) cells were cultured in DMEM 10% FCS, then seeded at 30000 cells/well in 96-well plates. After 24 h, the cells were subjected to transient transfection by FuGENE HD (Promega) by pcDNA3.1-mCB1 (50 ng) and pGlo (100 ng) plasmids with or without pertussis toxin (PTX). For the control assays, the cells were transfected with empty pcDNA3 (EV) and pGlo vectors with or without PTX. At 48 h (24 h post-transfection), the cells were loaded for 2 h with 2% GloReagent in CO2-independent medium with 10% FCS (80 μL/well).
The cells were then treated by adding, at t=0, 10 μL/well of Forskolin (FSK) 1 μM final, in order to increase the basal cAMP concentration. The kinetics of appearance of cAMP was monitored for 10 minutes. At t=10, the molecules to be tested were added and the cAMP variations measured for 20 minutes. The light signal was measured in RLU and is expressed as % response relative to the signal read at t=10 min (FSK1 μM). Sigmoidal curves were obtained by measurement at t=10 min after addition of the molecule to be tested (thus t=20 min total) of the percentage of light signal as a function of molecule concentration. The 4PL regression was carried out using the Sigma Plot software and made it possible to obtain an EC50 (1 experiment, n=3).

obese C57BL/6 mice [1] = assay: Food intake, body weight and body composition (EchoMRI) during 30-day chronic treatment; format: in vivo, mouse; details: obese mice, 10 mg/kg i.p. daily, 30 days
From the text: In order to determine the long-term effects of the molecules of interest, C57BL/6 mice made obese by means of a high-sucrose, high-fat diet (HSHF: 30% crude fat, 33.5% carbohydrates; ref. E15126-34; ref. E15126-34, SSNIFF, Soest, Germany) for 20 weeks. These mice then received daily an i.p. injection of rimonabant, JM-00.266 (i.e., compound IA) or vehicle for a period of 30 days. In parallel, weight and food intake were monitored every two days following the beginning of the treatment.
The long-term effect of the treatment on body composition was measured using an EchoMRI™ scanner allowing non-invasive analysis of fat mass, lean mass and body fluid composition by nuclear magnetic resonance (NMR) on the live animal without anaesthesia.

obese C57BL/6 mice [2] = assay: Glucose tolerance test after oral treatment simultaneously with food; format: in vivo, mouse; details: 28 days, administered at the same time as the meal
Description: In order to evaluate the long-term effects of the treatment on blood glucose control, glucose tolerance was evaluated at the end of the treatment period. The mice received an intraperitoneal injection of glucose (2 g/kg) then blood glucose was measured at times t=0, t=15 min, t=30 min, t=45 min, t=60 min, t=90 min, and t=120 min post-glucose injection using a My Life Pura blood glucose monitor (Ypsomed, Paris, France).

obese C57BL/6 mice [3] = assay: Body mass, 43-day oral treatment combined with low-fat diet; format: in vivo, mouse; details: low-fat diet (5% lipids), oral daily, 43 days
From the text: In order to determine the long-term effects of compound of interest JM-00.266 (i.e., compound IA), C57BL/6 mice were made obese by means of a high-fat diet (30% crude fat, 33.5% carbohydrates; ref. E15126-34, SSNIFF, Soest, Germany) for 15 weeks. The mice were then subjected to a low-fat diet (5% lipids; Standard Diet AO4; UAR, Epinay-sur-Orge, France) and received daily, in the middle of the day, an oral dose of JM-00.266 (i.e., compound IA) or of vehicle over a period of 43 days. The weight of the animals was measured every two days from the beginning of the treatment.

C57BL/6 mice = assay: Gastrointestinal transit (charcoal), anandamide-induced inhibition; format: in vivo, mouse; details: 10 mg/kg i.p. with AEA 10 mg/kg i.p.
Description: Transit through the stomach and the intestine was measured via oral administration of vegetable charcoal suspended in gum arabic used herein as nonabsorbable marker. Briefly, following a short fast, C57BL/6 mice were injected intraperitoneally (i.p.) with anandamide (10 mg/kg) in the presence or absence of the molecule of interest JM-00.266 (i.e., compound IA) (10 mg/kg) before oral charcoal administration. 25 minutes later, the animals were sacrificed by cervical dislocation in order to entirely remove the intestine. The distance between the beginning of the pylorus and the location of the charcoal bolus was measured.

wild-type C57BL/6 mice [4] = assay: Plasma insulin during OGTT (ELISA); format: in vivo, mouse; details: 10 mg/kg i.p.
Description: Assay of plasma insulin was carried out using the ALPCO™ Mouse Insulin ELISA Kit (ref. AKRIN-011T, ALPCO Diagnostics) according to the supplier's instructions. Blood samples were collected during an OGTT at t=0, t=30, t=60, t=120 min post-administration of the oral bolus of glucose (2 g/kg).

wild-type C57BL/6 mice [5] = assay: Acute oral glucose tolerance test (OGTT) in wild-type mice; format: in vivo, mouse; details: 10 mg/kg i.p. 10 min before 2 g/kg oral glucose load, wild-type C57Bl/6J mice
Description: (§1) In order to evaluate the short-term effects of the rimonabant-like molecules, as well as their selectivity for CB1R, wild-type C57BL/6 mice and CB1R −/− mice underwent an oral glucose tolerance test (OGTT at 2 g/kg) 10 min after i.p. injection of vehicle or of JM-02.003 or JM-00.266 (i.e., compound IA) (10 mg/kg). Blood glucose was measured at times t=0, t=15 min, t=30 min, t=45 min, t=60 min, t=90 min, and t=120 min post-oral. glucose administration using a Contour®TS blood glucose monitor (ref. 81574201, Bayer HealthCare) and reactive strips (ref. 81574274, Bayer HealthCare).

CB1R -/- mice = assay: Acute oral glucose tolerance test (OGTT) in CB1R KO mice; format: in vivo, mouse; details: 10 mg/kg i.p., OGTT 2 g/kg
Description: as §1

T1 sequence (P47746 whole entry): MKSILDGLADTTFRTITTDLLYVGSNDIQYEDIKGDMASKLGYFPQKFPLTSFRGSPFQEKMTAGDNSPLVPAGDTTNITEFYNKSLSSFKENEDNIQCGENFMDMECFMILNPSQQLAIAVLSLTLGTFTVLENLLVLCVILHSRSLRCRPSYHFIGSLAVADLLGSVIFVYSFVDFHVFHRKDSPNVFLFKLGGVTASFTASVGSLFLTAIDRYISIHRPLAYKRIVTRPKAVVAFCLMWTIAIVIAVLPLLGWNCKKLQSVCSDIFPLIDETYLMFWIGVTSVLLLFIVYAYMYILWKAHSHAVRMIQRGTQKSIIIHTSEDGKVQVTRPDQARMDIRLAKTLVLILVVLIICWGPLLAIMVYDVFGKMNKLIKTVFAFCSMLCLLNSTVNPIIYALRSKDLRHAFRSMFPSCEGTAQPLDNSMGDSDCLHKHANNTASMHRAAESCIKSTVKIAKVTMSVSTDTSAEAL

What does the source list for `CSc1ccc(C2C(N3C(=O)c4ccccc4C3=O)C(=O)N2c2ccc(SC)cc2)cc1` (stereo not drawn) [JM-00.266, trans-1,4-di-(4-methylthiophenyl)-3-N-phthaloyl-azetidine-2-one]?
cAMP concentrations in the absence of agonist (AEA) (CB1R (pcDNA3.1-mCB1)): increased; body weight relative to control mice (obese C57BL/6 mice [1]): does not decrease; food intake compared with control mice (obese C57BL/6 mice [1]): not altered; glucose tolerance versus vehicle (obese C57BL/6 mice [2]): better glucose tolerance; body mass / weight loss versus vehicle + low-fat diet (obese C57BL/6 mice [3]): decreases significantly more; effect on AEA-induced inhibition of gastrointestinal transit (C57BL/6 mice): completely abolishes the effect of the agonist and normalizes gastrointestinal transit; blood insulin at t=30 min (wild-type C57BL/6 mice [4]; versus vehicle): lower; insulin production induced by glucose administration (wild-type C57BL/6 mice [4]; wild-type mice): not stimulated; glucose tolerance compared with vehicle (wild-type C57BL/6 mice [5]): improves glucose tolerance; improvement in glucose tolerance in CB1R KO mice (CB1R -/- mice): abolished
